Laboratory results taken from patent publication US20250248979A1, “NOVEL GPX4 INHIBITORS AND USES THEREOF” (THE TRUSTEES OF COLUMBIA UNIVERSITY IN THE CITY OF NEW YORK, priority 2022, published 2025).
Entries after “also recorded” stand apart in the source; their conditions may differ. Where two headings read alike, the source gives them in different places.

Columns and labels:
[1] = system: HT-1080 cells; assay: Cellular dose response assay, HT-1080 with and without Fer-1; format: cell-based, human; conditions: for Selectivity: ferroptosis selectivity; for ferroptosis induction / potency in HT-1080 cells, result in words: RSL3 as control
Source text: HT-1080 (human [Homo sapiens] […] fibrosarcoma), A-673 (human [Homo sapiens] […] Ewing's sarcoma), and SK-HEP-1 (human [Homo sapiens] […] hepatic adenocarcinoma), cells were obtained from ATCC. Huh7 (human [Homo sapiens] […] hepatocellular carcinoma), HLF (human [Homo sapiens] […] hepatocellular carcinoma), HepG2 (human [Homo sapiens] […] hepatocellular carcinoma), cells were obtained from the Cancer Cell Bank at Columbia University Irving Medical Center. HT-1080, A-673, Huh-7, and HLF cells were grown in Dulbecco's Modified Eagle Medium (DMEM) supplemented with 10% heat inactivated fetal bovine serum (HI-FBS), 1% non-essential amino acids, and 1% penicillin streptomycin. HepG2 and SK-HEP-1 cells were grown in Eagle's Minimum Essential Medium (EMEM) supplemented with 10% HI-FBS, and 1% penicillin-streptomycin. All cells were cultured at 37° C. and 5% CO2.
HT-1080, HepG2, Huh7, HLF, and SK-HEP-1 cells were seeded into opaque white 384-well plates at 1500 cells per well then incubated at 37° C. with 5% CO2 overnight. The next day, compounds of interest were dissolved in DMSO and 12-point 2-fold dilution series were prepared with and without Fer-1. Cells were treated in triplicate (final DMSO concentration of 0.4% in all wells, including DMSO-only control wells) and incubated for a further 48 hours at 37° C. and 5% CO2. Cell viability was evaluated using CellTiter-Glo (Promega G7573) and luminescence was recorded on a Victor 5 plate reader. Data were analyzed in GraphPad Prism 9 and error bars represent standard deviation values for three technical replicates in a representative experiment.

[2] = molecular target: T1, GPX4 (Homo sapiens, UniProt P36969); assay: GPX4 activity assay in cell lysates (NADPH-coupled); format: biochemical; set-up: endogenous in cells; host or cells: A-673 cell lysate
T1 sequence (P36969 1-170 isoform P36969-2): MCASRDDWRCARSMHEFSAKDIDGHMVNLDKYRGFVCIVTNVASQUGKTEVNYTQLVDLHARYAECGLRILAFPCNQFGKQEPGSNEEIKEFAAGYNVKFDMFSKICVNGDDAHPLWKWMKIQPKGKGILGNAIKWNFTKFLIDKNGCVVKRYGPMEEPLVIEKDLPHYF
Outline: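 Native GPX4 in lysates of A-673 cells grown with 20 nM sodium selenite; lysate preincubated with compound 45 min at 37 °C in pH 8.0 buffer with 3 mM GSH, 0.5 mM NADPH and glutathione reductase. Reaction started with phosphatidylcholine hydroperoxide; NADPH consumption followed at 340 nm over 25 min; triplicates.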

[3] = with Fer-1, Table 10, read-out: IC50 (μM) HT1080 + Fer-1
[4] = without Fer-1, Table 10, read-out: IC50 (μM) HT1080
[5] = HT1080 + Fer-1, read-out: IC50 (uM) HT1080 + Fer-1
[6] = HT1080, without Fer-1, read-out: IC50 (uM) HT1080
[7] = read-out: IC50 against HT1080 cell lines

COc1ccc(-c2ccc3c(C(=O)NC(C)(C)C(C)(C)OC(=O)CCl)nn(Cc4ccc(Cl)cc4)c3c2)cc1Cl [QW-809]
Selectivity ([1]; IC50 with Fer-1 / IC50): 1.5
IC50 [1, 3]: 6.5 µM
IC50 [1, 4]: 4.2 µM
GPX4% inhibition at 2.5 μM ([2]; 4th generation): 34.6 ± 29.6%

COc1c(Cl)cc(-c2ccc3c(C(=O)NC(C)(C)C(C)(C)OC(=O)CCl)nn(C)c3c2)cc1C(F)(F)F [QW-813]
IC50 [1, 5]: 3 µM
IC50 [1, 6]: 2.1 µM
Selectivity ([1]; HT1080 + Fer-1 vs HT1080): 1.4
GPX4% inhibition at 2.5 μM [2]: −17.0 ± 28.7%

COc1c(Cl)cc(-c2ccc3c(C(=O)NC(C)(C)COC(=O)CCl)nn(C)c3c2)cc1C(F)(F)F [QW-815]
IC50 [1, 5]: 16.7 µM
IC50 [1, 6]: 0.58 µM
ferroptosis induction / potency in HT-1080 cells, result in words [1]: sub-molar range cellular activities and decreased ferroptosis selectivity
Selectivity ([1]; HT1080 + Fer-1 vs HT1080): 28.8
GPX4% inhibition at 2.5 μM [2]: 79.3 ± 5.5%

COc1ccc(-c2ccc3c(C(=O)NC(C)(C)COC(=O)CCl)nn(Cc4ccc(Cl)cc4)c3c2)cc1Cl [QW-823]
ferroptosis induction / potency in HT-1080 cells, result in words [1]: good potency in cell and selectivity to GPX4; also recorded: outstanding cytotoxicity with sub-molar scale
Selectivity ([1]; IC50 with Fer-1 / IC50): 34.5
IC50 [1, 3]: 11.4 µM
IC50 [1, 4]: 0.33 µM
GPX4 inhibitory activity, result in words [2]: greater GPX4 inhibitory activity than QW-446
GPX4% inhibition at 2.5 μM ([2]; 4th generation): 95.0 ± 13.1%

CC(C)(COC(=O)CCl)NC(=O)c1nn(Cc2ccc(Cl)cc2)c2cc(-c3ccc(N4CCOCC4)c(Cl)c3)ccc12 [QW-824]
ferroptosis induction / potency in HT-1080 cells, result in words [1]: good potency in cell and selectivity to GPX4; also recorded: outstanding cytotoxicity with sub-molar scale
Selectivity ([1]; IC50 with Fer-1 / IC50): >220
IC50 [1, 3]: > 40 µM
IC50 [1, 4]: 0.18 µM
GPX4 inhibitory activity, result in words [2]: greater GPX4 inhibitory activity than QW-446
GPX4% inhibition at 2.5 μM ([2]; 4th generation): 90.5 ± 7.4%

C=CC(=O)OCC(C)(C)NC(=O)c1nn(Cc2ccc(Cl)cc2)c2cc(-c3ccc(OC)c(Cl)c3)ccc12 [QW-831]
Selectivity ([1]; IC50 with Fer-1 / IC50): 1.1
IC50 [1, 3]: 13 µM
IC50 [1, 4]: 12 µM
GPX4% inhibition at 2.5 μM ([2]; 4th generation): 32.6 ± 61.0%

COc1ccc(-c2ccc3c(C(=O)NC(C)(C)COC(=O)C#C[Si](C)(C)C)nn(Cc4ccc(Cl)cc4)c3c2)cc1Cl [QW-832]
Selectivity ([1]; IC50 with Fer-1 / IC50): 37.4
IC50 [1, 3]: 63.6 µM
IC50 [1, 4]: 1.7 µM
GPX4% inhibition at 2.5 μM ([2]; 4th generation): 58.9 ± 9.0%

CC(C)Oc1ccc(-c2ccc3c(C(=O)NC(C)(C)COC(=O)CCl)nn(Cc4ccc(Cl)cc4)c3c2)cc1Cl [QW-841]
ferroptosis induction / potency in HT-1080 cells, result in words [1]: outstanding cytotoxicity with sub-molar scale
Selectivity ([1]; IC50 with Fer-1 / IC50): 38.5
IC50 [1, 3]: 28.5 µM
IC50 [1, 4]: 0.74 µM
GPX4% inhibition at 2.5 μM ([2]; 4th generation): 91.3 ± 2.0%

CSc1ccc(-c2ccc3c(C(=O)NC(C)(C)COC(=O)CCl)nn(Cc4ccc(Cl)cc4)c3c2)cc1Cl [QW-847]
Selectivity ([1]; IC50 with Fer-1 / IC50): 9.6
IC50 [1, 3]: 98.4 µM
IC50 [1, 4]: 10.2 µM
GPX4% inhibition at 2.5 μM ([2]; 4th generation): 88.5 ± 16.1%

COc1ccc(-c2ccc3c(C(=O)NC(C)(C)COC(=O)CCl)nn(Cc4cc(Cl)cc(Cl)c4)c3c2)cc1Cl [QW-851]
fold change in potency in the cell viability assay, QW-851 vs QW-446 ([1]; benzyl vs methyl on the indazole): 10 fold
Selectivity ([1]; IC50 with Fer-1 / IC50): >920
IC50 [1, 7]: 0.0435 µM
IC50 [1, 3]: > 40 µM
GPX4 inhibitory activity, result in words [2]: greater GPX4 inhibitory activity than QW-446 at 2.5 μM concentration
GPX4% inhibition at 2.5 μM ([2]; 4th generation): 114.9 ± 23.5%

COc1ccc(-c2cc(Cl)cc(Cn3nc(C(=O)NC(C)(C)COC(=O)CCl)c4ccc(-c5ccc(OC)c(Cl)c5)cc43)c2)cc1Cl [QW-853]
Selectivity ([1]; IC50 with Fer-1 / IC50): 56.8
IC50 [1, 3]: 21 µM
IC50 [1, 4]: 0.37 µM
GPX4% inhibition at 2.5 μM ([2]; 4th generation): 45.5 ± 34.3%

CC(C)Oc1ccc(-c2ccc3c(C(=O)NC(C)(C)COC(=O)CCl)nn(Cc4cc(Cl)cc(Cl)c4)c3c2)cc1Cl [QW-857]
Selectivity ([1]; IC50 with Fer-1 / IC50): >790
IC50 [1, 7]: 0.0506 µM
IC50 [1, 3]: > 40 µM
GPX4 inhibitory activity, result in words [2]: greater GPX4 inhibitory activity than QW-446 at 2.5 μM concentration
GPX4% inhibition at 2.5 μM ([2]; 4th generation): 66.7 ± 26.2%

COc1ccc(-c2ccc3c(C(=O)NC(C)(C)COC(=O)CCl)nn(Cc4ccc(C(F)(F)F)cc4)c3c2)cc1Cl [QW-873]
Selectivity ([1]; IC50 with Fer-1 / IC50): 3.4
IC50 [1, 3]: 26.8 µM
IC50 [1, 4]: 8 µM
GPX4% inhibition at 2.5 μM ([2]; 4th generation): 45.6 ± 39.7%
